In patent US9532945B2, “Oral dosage forms including an antiplatelet agent and an enterically coated acid inhibitor” (KG ACQUISITION LLC, priority 2006, dated 2017):

Key:
[1] = at a pH greater than about 4; cited from earlier work
[2] = Excipient compatibility study: physical appearance; format: physicochemical; parameters: key: T: Off white powder with pellets; V: Off white powder with white pellets; W: Off white powder with off white pellets; X: Off white powder without pellets; Y: Off white powder with pellets and shells; Z: Sticky off white powder with grey pellets; S: Off white powder with blue pellets; R: Off white powder with grey pellets; Q: Off white powder with brown pellets; P: Brownish sticky powder with gray pellets; Off white powder with sticking brown pellets; N: Brownish sticky powder with blue pellets; M: Slight yellow powder with grey pellets; Light brownish sticky powder with off white pellets; K: Slight yellow agglutinate; J: Sticky off white powder with off white pellets; I: Capsule shells with white pellets and off white powder; H: Capsule shells with yellowish pellets and off white powder; settings: stored at 40° C./75% RH
Description: In addition to the excipients used in the commercial formulation, some commonly used excipients were also tested. […] Samples were stored also at 25° C./60% RH to be tested only if the stress sample failed. […] The development work explored the compatibility of both APIs together with each of the proposed excipients individually in different ratios depending on the function of the excipient at different temperature and humidity conditions. The selected excipients were mixed with the APIs in different ratios depending on the excipient functionality (Table 5). In addition, samples of pure APIs and excipients were prepared and provided as reference and control respectively.

Compound	solubility [1]	Physical Appearance ([2]; 1 week)	Physical Appearance ([2]; 2 weeks)	Physical Appearance ([2]; 4 weeks)	Physical Appearance ([2]; 6 weeks)	Physical Appearance ([2]; 8 weeks)	Physical Appearance ([2]; 12 weeks)	Physical Appearance ([2]; Initial)
COC(=O)[C@H](c1ccccc1Cl)N1CCc2sccc2C1 [clopidogrel]	reduced solubility							
COC(=O)[C@H](c1ccccc1Cl)N1CCc2sccc2C1 [Clopidogrel Bisulfate]		X	X	X	X	X	X	X
